Data reported in patent publication US7053177B1, “Random peptides that bind to gastro-intestinal tract (GIT) transport receptors and related methods” (Cytogen Corporation, priority 1997, dated 2006).
Ends that are not written are not given here. * marks the point of attachment. Dansyl = CN(C)c1cccc2c(S(=O)(=O)*)cccc12

Experiments:
[1] = system: fixed Caco-2 cells; experiment: Effect of thrombin cleavage on binding of GST-peptide fusions to fixed Caco-2 cells; settings: in words
Method: Binding of intact and thrombin-cleaved GST-peptide fusions to fixed Caco-2 cells was compared.
Thirty micrograms of each GST-peptide was treated with bovine thrombin (1 μ/ml; 0.4 NIH units; Sigma CN.T9681) for 18h at room temperature in 20 mM Tris-HCl pH8.0, 150 mM NaCl, 2.5 mM CaCl2. Controls were similarly treated without addition of thrombin. Ten micrograms of each GST-peptide fusion was removed for PAGE analysis, and 10 μg of fusions were added in duplicate to the fixed Caco-2 cells before 5-fold serial dilutions (1% BPT diluent). The fusions were allowed to bind for 1h at room temperature. Following 6 washes with 1% BPT, binding was assayed by ELISA.

[2] = system: P100 membrane fraction of Caco-2 cells; experiment: GST-PAX2 peptides: relative binding to P100 fractions (ratio to GST-HAX42); settings: GST-peptide 20 μg/ml; binding to plastic subtracted; GST-HAX42 = 1.00
Method: The peptides and proteins were analyzed by a dansylated peptide ELISA method in which 96 well plates were coated overnight at 4° C. with 100 μl/well coating protein (normally 100 μg/ml P100 membrane fraction) in 0.05M carbonate buffer pH9.6. Nonspecific binding was blocked using 200 μl/well, 2% Marvel/PBS for 2 hours at 37° C. prior to incubation with dansylated peptides. The plates were washed three times with PBS/0.05% Tween 20 and after each subsequent incubation step. […] A buffer blank control was included to ensure that background binding to plastic was not due to the antibodies used in the assay system. […] The plates were then incubated with an anti-mouse λ-HRP conjugated antibody (Southern Biotech 1060-05) at a 1:10,000 dilution in blocking solution, 100 μl/well for 1 hour at room temperature. Plates were developed using 75 μl/well Bionostics TMB substrate and incubated for approximately 10 minutes. The developing reaction was stopped using Bionostics Red Stop solution (25 μl/well), and the optical density of the plates was read at 650 nm.
After subtraction of the GST-peptide binding to plastic from P100 binding values, the binding of GST-PAX2 peptides were represented as a ratio of GST-HAX42 binding to P100, which was given the arbitrary value of 1.00. The following ratios were determined from binding to P100 of GST-peptides at a peptide concentration of 20 μg/ml. […]

[3] = system: fixed Caco-2 cells; experiment: Competition ELISA: synthetic peptides versus GST-peptide fusions on fixed Caco-2 cells; settings: peptide from 100 μg/ml serially diluted; GST fusion 10 μg
Method: Caco-2 cells were fixed, treated with phenylhydrazin and blocked as described above. Synthetic peptides (100 μg/ml) were applied in duplicate to Caco-2 cells and serially diluted down the 96-well plate. The corresponding GST-peptide fusion protein (10 μg) was added to each well and the plates were incubated for 2h at room temperature with agitation. Binding of the GST-peptide fusion proteins to the cells was assayed using the ELISA technique described above.

[4] = system: P100 membrane fraction of Caco-2 cells; experiment: Binding of dansylated peptides to P100 fractions (peptide/particle correlation); settings: compared with scrambled PAX2 control
Method: Caco-2 cell membrane (P100) and cytosolic (S100) fractions were prepared using a modification of the method described in Kinsella, B. T., O'Mahony, D. J. and G. A. FitzGerald, 1994, J. Biol. Chem. 269(47): 29914–29919. Confluent Caco-2 cell monolayers (grown in 75 cm^2 flasks for up to 1 week at 37° C. and 5% CO2) were washed twice in Dulbecco's PBS (DPBS) and the cells were harvested by centrifugation at 1000 rpm after treatment with 10 mM EDTA-DPBS. The cells were washed 3 times in DPBS and the final cell pellet was resuspended in 3 volumes of ice cold HED buffer (20 mM HEPES (pH 7.67), 1 mM EGTA, 0.5 mM dithiothreitol, 1 mM phenylmethylsulphonyl fluoride (PMSF)). The cells were allowed to swell for 5 min on ice prior to homogenization for 30 sec. The homogenates were centrifuged at 40,000 rpm for 45 min at 4° C. The supernatant (S100) was removed and the pellet (P100) was resuspended in HEDG buffer (20 mM HEPES (pH 7.67), 1 mM EGTA, 0.5 mM dithiothreitol, 100 mM NaCl, 10% glycerol, 1 mM PMSF). Protein concentrations were determined using the Bradford assay (Bradford, M. M., 1976, Anal. Biochem. 72: 248–254).
Binding of peptide and/or peptide-coated PLGA particles to membrane (P100) and cytosolic (S100) fractions was assessed by detection of the dansyl moiety incorporated in the peptide. Costar ninety six well ELISA plates were coated with S100 and P100 fractions (100 μg/ml in 0.05 M NaHCO3) overnight at 4° C. The plates were blocked with 0.5% bovine serum albumin in DPBS for 1 h at room temperature and washed 3 times in 1% BSA-DPBS. Peptide-coated particles or peptides were dispersed in the same buffer and added to the plates at concentrations in the range 0.0325–0.5 mg/well. […] The plates were incubated for 1 h at room temperature. The wells were washed 3 times in 1% BSA-DPBS and 100 μl of goat anti-mouse IgGλ:HRP antibody (Southern Biotechnology 1060-05; 1:10,000) was added per well. The plates were incubated for 1 h at room temperature. After washing 3 times in 1% BSA-DPBS 100 μl of TMB substrate (3,3′,5′,5-tetramethylbenzidine; Microwell Peroxidase Substrate System (Kirkegaard and Perry Laboratories 50-76-00)) was added and the optical density was measured at 650 nm at various time intervals.
Binding of dansylated peptides to P100 fractions was assessed to determine if peptide binding was predictive of peptide-coated particle binding.

[5] = system: P100 membrane fraction of Caco-2 cells; experiment: Dansylated peptide ELISA: relative binding of PAX2 and HAX42 peptides to P100 fractions (ratio to ZElan021); settings: HAX42 peptides, ratio to ZElan021 = 1.00
Method in brief: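 Plates coated overnight at 4 °C with Caco-2 P100 membrane fraction (normally 100 μg/ml, pH 9.6) and blocked with 2% Marvel/PBS were incubated with dansylated peptides. Binding was detected with anti-mouse λ-HRP and TMB, read at 650 nm, and expressed relative to ZElan021.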

[6] = biological target: BSA (Bos taurus, UniProt P02769); experiment: Receptor ELISA of phage on BSA (background control protein); type: binding; settings: Table 4; phage panned on hPEPT1
[7] = system: rat gastro-intestinal tract (closed loop); experiment: Transport of preselected phage libraries in rat closed loop, detected by oligonucleotide hybridization/autoradiography; settings: hPEPT1 pool; in words
[8] = Animal Study 3: intraduodenal open loop leuprolide acetate particles, plasma leuprolide; type: in vivo, Wistar rats; settings: intraduodenal 600 μg vs 12.5 μg subcutaneous
Method: An intraduodenal open loop model study was carried out on Wistar rats (300–350 g). Group 1 was administered leuprolide acetate (12.5 μg) subcutaneously. Group 2 was administered intraduodenally uncoated leuprolide acetate particles (600 μg, 1.5 ml).

BSA, sequence (P02769 25-607): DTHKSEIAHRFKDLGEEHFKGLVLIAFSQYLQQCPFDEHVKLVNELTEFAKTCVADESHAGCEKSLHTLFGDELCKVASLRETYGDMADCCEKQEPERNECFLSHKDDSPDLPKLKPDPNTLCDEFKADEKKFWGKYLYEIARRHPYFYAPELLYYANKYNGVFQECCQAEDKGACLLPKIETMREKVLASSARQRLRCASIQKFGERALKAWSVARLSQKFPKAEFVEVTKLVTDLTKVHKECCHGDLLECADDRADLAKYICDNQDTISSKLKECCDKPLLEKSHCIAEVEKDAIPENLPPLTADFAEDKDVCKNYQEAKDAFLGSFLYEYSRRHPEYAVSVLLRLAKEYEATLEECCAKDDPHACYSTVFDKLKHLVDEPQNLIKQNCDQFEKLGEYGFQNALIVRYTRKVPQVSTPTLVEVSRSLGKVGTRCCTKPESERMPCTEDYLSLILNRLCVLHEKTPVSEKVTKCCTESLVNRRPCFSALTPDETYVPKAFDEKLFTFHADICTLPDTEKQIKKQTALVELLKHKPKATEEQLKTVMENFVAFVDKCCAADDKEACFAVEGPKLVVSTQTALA

## GST-PAX2-106: GST fusion of truncated peptide derived from PAX2, SEQ ID NO: 188 (TNAKHSSHNRRLRTRSRPN; also: GST fusion)
[1]
  Effect of cleavage with thrombin on detection of binding to fixed Caco-2 cells: significantly reduced
[2]
  Value (binding to P100 as ratio of GST-HAX42 binding): 2.71

## H-K(Dansyl)SDHALGTNLRSDNAKEPGDYNCCGNGNSTGRKVFNRRRPSAIPT-NH2 (cysteines drawn unpaired) [ZElan021]
[3]
  Inhibition of GST-HAX42 binding to fixed Caco-2 cells: not inhibited
[4]; initial assay
  Binding of dansylated peptide to P100 fraction: strong binding
[4]; repeat assay
  Binding of dansylated peptide to P100 fraction: significant binding
[5]; 20 μg/ml
  Binding value at 20 μg/ml: 1.00
[5]; first column
  Binding value at 25 μg/ml: 1.00
  Binding value at 50 μg/ml: 1.00
[5]; second column
  Binding value at 25 μg/ml: 1.00
  Binding value at 50 μg/ml: 1.00
[5]; third column
  Binding value at 25 μg/ml: 1.00

## SARDSGPAEDGSRAVRLNGVENANTRKSSRSNPRGRRHP (not fully specified) [Peptide P31]
[6]
  BSA: 0.075 OD
[7]
  Binding to / presence in the intestine samples: preferential binding
  Presence in the portal circulation: found
  Presence in the systemic circulation: found in the systemic circulation
[8]
  Plasma levels of leuprolide relative to subcutaneous injection: enhanced plasma levels of leuprolide
